In patent publication US20130253039A1, “COLORECTAL CANCER TREATMENTS AND DIAGNOSTIC IMPROVEMENTS” (priority 2012, published 2013):
Where two headings read alike, the source gives them in different places.

Assays:
[1] = test system: HCT15; assay: Cell-kill assay (dye-based cell proliferation), HCT15; details: Homo sapiens, HCT-15; free tiazofurin, 72 h
Experimental: (§1) Human colorectal cancer cell lines HCT15, HCT116, HT29, HCC2998, and Caco2 were obtained from the National Cancer Institute, Bethesda, Md., USA, maintained in 5% CO2 at 3TC in minimum essential media containing 2.3 μM folic acid (MEM, Life Technologies, Inc., Grand Island, N.Y.) supplemented with 1% penicillin, streptomycin, amphotericin B (Invitrogen, Carlsbad, Calif.), and 10% fetal bovine serum (FBS) for all cell lines except Caco2, which required 20% FBS for optimal growth. Caco2 and HT29 cells were adapted to grow in a low-folate (LF) condition by step-wise reduction of the folate concentration in the medium and finally were stably adapted to grow in folate-free MEM supplemented with 20% and 10% FBS, respectively. The complete LF medium with 20% FBS for Caco2 cells contained 18 nM 5-methyltetrahydrofolate and the LF medium with 10% FBS for HT29 cells contained 9 nM 5-methyltetrahydrofolate. The cells were cultured in low 5-methyltetrahydrofolate conditioned medium for at least 20 generations before they were used in the experiments to promote full expression of folate receptors, and logarithmically growing cells were utilized for all studies.

[2] = test system: HCT116; assay: Cell-kill assay, HCT116; format: cell-based; details: Homo sapiens, HCT-116; free tiazofurin, 72 h
Experimental: as §1

[3] = test system: HT29; assay: Cell-kill assay, wild-type HT29; format: cell-based, human; details: for EC50: wild-type HT29, free tiazofurin, 72 h, read-out: Cytotoxicity EC50, Wild-type
Experimental: as §1

[4] = test system: HCC2998; assay: Cell-kill assay, HCC2998; format: cell-based; details: Homo sapiens, HCC 2998; free tiazofurin, 72 h
Experimental: as §1

[5] = test system: Caco2; assay: Cell-kill assay, wild-type Caco2; format: cell-based, human
Experimental: as §1

[6] = test system: hNMNAT2 transfected Caco2 cell line; assay: Cell-kill assay, hNMNAT2 transfected Caco2; details: Homo sapiens, Caco-2, 72 h, read-out: Cytotoxicity EC50, hNMNAT2
Experimental: (§2) Colorectal cancer cells were transfected with pTracer hNMNAT2 and the control plasmid pTracerEFV5/HisA using the lipofectamine reagent (Invitrogen, Carlsbad, Calif.). Zeocin resistant green fluorescence protein (GFP) expressing clones were further analyzed by Fluorescence-activated cell sorting (Becton Dickinson Immunocytometry Systems, San Jose, Calif.).
(§3) Colorectal cancer cells (1500 cells/0.1 ml) were dispensed into 96-well tissue culture plates and 24 h later treated with serial dilutions of free tiazofurin or nanoparticles containing tiazofurin (for nanoparticle treatment, cells were incubated for 2 h with gentle shaking, aspirated and fresh media was added) and further incubated for 72 h at 3TC. After incubation, 20 μl of 3-(4,5-dimethylthiazol-2-yl)-5-(3-carboxymethoxyphenyl)-2-(4-sulfophenyl)-2H-tetrazolium reagent was added to each well, mixed, plates were further incubated for 2 h and color developed was read at 490 nm using a microplate spectrophotometer (Spectra MAX250, Molecular Devices, Sunnnyvale, Calif.) and cell-kill data were analyzed by Graphpad Prism 4 software (GraphPad Software, San Diego, Calif.).

[7] = test system: hNMNAT2 transfected HT29 cell line; assay: Cell-kill assay, hNMNAT2 transfected HT29; details: Homo sapiens, HT-29, 72 h, read-out: Cytotoxicity EC50, hNMNAT2
Experimental: as §2, §3

[8] = test system: hNMNAT-2-shRNA knockdown cells (Caco2); assay: Cell-kill assay, hNMNAT-2-shRNA knockdown Caco2 cells; format: cell-based; details: Homo sapiens, Caco-2; hNMNAT2 overexpressing Caco2 silenced with hNMNAT2-shRNA, puromycin selected
Excerpt: Colorectal cancer Caco2 cells overexpressing hNMNAT2 were transfected with control shRNA plasmid and NMNAT2 small hairpin shRNA plasmid (sc-62693-SH: NMNAT2 shRNA Plasmid (h) is a pool of 3 different shRNA plasmids with a hairpin sequence: […] (SEQ ID NO: 3) and sc-62693-SHA: 5′-GUAGAAAGUGAGACUCAAUtt-3′ (SEQ ID NO: 4) and 5′-AUUGAGUCUCACUUUCUACtt-3′ (SEQ ID NO: 5); sc-62693-SHB: 5′-CCUUAGGAAUAGCAUUGUAtt-3′ (SEQ ID NO: 6) and 5′-UACAAUGCUAUUCCUAAGGtt-3′ (SEQ ID NO: 7); sc-62693-SHC: 5′-GCUCUUUCCCUCAACCUUAtt-3′ (SEQ ID NO: 8) and 5′-UAAGGUUGAGGGAAAGAGCtt-3′ (SEQ ID NO: 9). Transfection was conducted for 8 h as per manufacturer's instructions (Santa Cruz Biotechnology, Inc., Santa Cruz, Calif.). Puromycin resistant clones were selected and knockdown of hNMNAT2 was confirmed by Western blot analyses.

[9] = target: T1, IMPDH (Homo sapiens, UniProt P12268); assay: IMPDH activity in Caco2 cell lines after tiazofurin treatment; format: cell-based; details: 4 h
T1 construct: endogenous in cells; host or cells: Caco2 (wild-type and hNMNAT2-transfected)
T1 sequence (P12268 2-514): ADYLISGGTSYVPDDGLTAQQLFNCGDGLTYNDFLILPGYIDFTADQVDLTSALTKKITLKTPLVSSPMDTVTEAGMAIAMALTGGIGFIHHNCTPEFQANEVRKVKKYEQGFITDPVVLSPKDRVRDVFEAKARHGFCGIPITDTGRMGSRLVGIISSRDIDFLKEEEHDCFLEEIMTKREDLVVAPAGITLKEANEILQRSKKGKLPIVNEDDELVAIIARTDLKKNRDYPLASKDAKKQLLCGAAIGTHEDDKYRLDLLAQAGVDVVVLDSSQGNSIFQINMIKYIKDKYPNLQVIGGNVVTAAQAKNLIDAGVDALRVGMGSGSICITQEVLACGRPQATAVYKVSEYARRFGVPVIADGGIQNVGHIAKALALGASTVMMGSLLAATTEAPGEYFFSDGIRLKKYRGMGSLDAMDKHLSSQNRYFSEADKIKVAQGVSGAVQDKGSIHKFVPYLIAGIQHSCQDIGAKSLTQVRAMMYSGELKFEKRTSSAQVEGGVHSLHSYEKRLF
Experimental: Panel A, Cells were Processed and NAD levels were determined in the cytoplasmic extracts as described in the Methods section, below. […] Triplicate flasks were set-up with each cell line and incubated with saline or tiazofurin (100-300 μM) for 4 h at 3TC. Cells were processed as described in the Methods section below. Basal IMPDH activity in saline treated control was 1.85 […] of XMP synthesized/mg protein/min; Panel D, NMNAT enzyme activity in wild-type and hNMNAT2 transfected Caco2 cell lines. The y-axis of the bar graph indicates the NMNAT activity in unit/mg of protein; Panel E, hNMNAT2 expression in cytoplasm, nucleus, and mitochondria. Cytoplasmic, nuclear, and mitochondrial proteins were isolated as detailed in the Methods section below and expression of hNMNAT2 protein was determined by Western blot analysis in wild-type and hNMNAT2 transfected caco2 cell lines; Panel F, silencing of hNMNAT2 expression in hNMNAT2 overexpressing cell line. hNMNAT2 expression in transfected Caco2 cell lines was silenced by shRNA-NMNAT2 and there expression was determined by Western blot analysis; Panel G, the wild-type, hNMNAT2 overexpressing, and hNMNAT2 overexpressing Caco2 cell lines were subjected to cell-kill by tiazofurin. ? […]
Colorectal cancer cells were extracted and IMPDH activity was assayed as described and activity is expressed as nmol/min/mg protein [8]. […]

[10] = test system: GTP pools; assay: GTP concentration in colorectal cancer cells after tiazofurin treatment (HPLC); format: cell-based, human; details: 4 h
Experimental: The y-axis of the bar graph indicate the GTP concentration in nmol per million cells while the x-axis gives the tiazofurin concentration used; Panels C and F, effect of TAD concentration following tiazofurin treatment. Triplicate flasks were set-up with each cell line, treated with tiazofurin Caco2 (300 μM), and HT29 (150 μM) for 4 h and processed as detailed in Methods section below. The y-axis indicates the TAD concentration in nmol per million cells. ? Wild-type (WT), ? hNMNAT2 transfected cell line. • *Denotes statistical significance (P<0.05) NS Denotes not significant
(§4) For the determination of GTP and TAD, colorectal cancer cells were treated with concentration of tiazofurin (specified in legends to figures) or with saline for 4 h and cell extracts were prepared as detailed earlier. An aliquot of neutralized extract was injected into Phenomenex Gemini 250×4.6 mm, 5μ C18 110A column (Torrance, Calif.) maintained at 19° C., preequilibrated with buffer A (0.1 M potassium phosphate, pH 6.0) and then subjected to a stepwise gradient of buffer A with 20% acetonitrile, pH 6.0 over 30 min and analyzed on Shimadzu High Performance Liquid Chromatography (Canby, Oreg.). Under these conditions GTP eluted at 10 min separated from other nucleotides.

[11] = test system: TAD concentration; assay: TAD concentration in colorectal cancer cells after tiazofurin treatment (HPLC); format: cell-based, human; details: 4 h
Experimental: Panels A, B, D, and E, triplicate flasks were set-up with each cell line, treated with tiazofurin (0, 150 and 300 μM) for Caco2 and (0, 50 and 150 μM) for HT29 for 4 h and the cells were processed as detailed in Methods section below. The y-axis of the bar graph indicate the GTP concentration in nmol per million cells while the x-axis gives the tiazofurin concentration used; Panels C and F, effect of TAD concentration following tiazofurin treatment. Triplicate flasks were set-up with each cell line, treated with tiazofurin Caco2 (300 μM), and HT29 (150 μM) for 4 h and processed as detailed in Methods section below. The y-axis indicates the TAD concentration in nmol per million cells. ? […]
as §4, with “Under these conditions GTP eluted at 10 min separated from other nucleotides.” left out

[12] = test system: wild-type HT29; assay: Antitumor activity in athymic mice with subcutaneous wild-type HT29 tumors; format: in vivo
Experimental: (§5) In vivo studies were conducted studies to compare antitumor activity of tiazofurin in athymic mice implanted subcutaneously with wild-type and hNMNAT2-over-expressed HT29 cell lines. Groups of five female athymic mice 6-8 weeks old, weighing 16-18 grams, obtained from Harlan Sprague Dawley, Indianapolis, Ind., were injected with wild-type or hNMNAT2-over-expressed HT29 (2×10^6 cells/mice), and tumors were allowed to establish for 7 days. Mice were then treated intraperitoneally with saline or tiazofurin once-a-day for 10 days (QD10) and tumor volume and weights were monitored twice a week. […] There was a dose-dependent decrease in tumor volume following tiazofurin treatment in mice bearing wild-type HT29 (70% decrease in tumor volume at 200 mg/kg and 50% decrease in tumor volume at 50 mg/kg). […] These studies indicate that hNMNAT2-gene-targeted tiazofurin therapy for colorectal cancer is feasible. Further decreasing the dose of tiazofurin will be possible by targeting FR and/or CEA and encapsulating tiazofurin in folate-tethered nanoparticles. Further targeting would translate to additional lowering of tiazofurin induced side-effects.

[13] = test system: hNMNAT2-over-expressed HT29; assay: Antitumor activity in athymic mice with subcutaneous hNMNAT2-over-expressed HT29 tumors; format: in vivo
Experimental: as §5

[14] = dose of 1,100 mg/m^2, patients; cited from earlier work
[15] = test system: colorectal cancer; details: 21 patients, bolus once a day for 5 days; cited from earlier work
[16] = test system: human colorectal carcinoma; details: mouse, in vivo; cited from earlier work
[17] = 50 mg/kg intraperitoneally once-a-day for 10 days
[18] = 200 mg/kg intraperitoneally once-a-day for 10 days

## NC(=O)c1csc([C@@H]2O[C@H](CO)[C@@H](O)[C@H]2O)n1 [tiazofurin, 2-R-D-ribofuranosylthiazole-4-carboxamide]
[1]
  EC50: 63.9 µM
[2]
  EC50: 72.6 µM
[3]; Homo sapiens, HT-29, 72 h
  EC50: 125 µM
[3]
  EC50: 130 ± 8 µM
[3]; wild-type and hNMNAT2 overexpressing HT29, siRNA-hNMNAT3 24 h
  Influence of silencing hNMNAT3 on cell-kill by tiazofurin: did not influence cell-kill by tiazofurin
[3]; wild-type or hNMNAT2-overexpressing HT29, siRNA-hNMNAT1 day 3
  Influence of silencing hNMNAT1 on cell-kill by tiazofurin: had no effect on tiazofurin cell-kill
[4]
  EC50: 274 µM
[5]; Homo sapiens, Caco-2, 72 h, wild-type Caco2, free tiazofurin, 72 h, read-out: Cytotoxicity EC50, Wild-type
  EC50: 450 µM
[5]; wild-type and hNMNAT2 overexpressing Caco2, siRNA-hNMNAT3 24 h
  Influence of silencing hNMNAT3 on cell-kill by tiazofurin: no change in the dose of tiazofurin required to provide 50% cell-kill
[5]; wild-type or hNMNAT2 overexpressing Caco2, siRNA-hNMNAT1 day 3
  Influence of silencing hNMNAT1 on cell-kill by tiazofurin: did not have any influence on cell-kill by tiazofurin
[6]
  EC50: 225 µM
[7]
  EC50: 80 ± 3 µM
[8]
  EC50: 380 µM
[9]; hNMNAT2 transfected Caco2, tiazofurin 100-300 μM, read-out: EC50 of decrease in IMPDH activity
  EC50: 250 µM
[9]; wild-type Caco2, sub-lethal tiazofurin 100-300 μM
  Effect on IMPDH activity: no reduction in IMPDH activity
[10]; hNMNAT2-transfected Caco2, 150 μM tiazofurin
  Reduction in GTP levels: 40%
[10]; hNMNAT2-transfected Caco2, 300 μM tiazofurin
  Reduction in GTP levels: 60%
[10]; hNMNAT2-transfected HT29, 25 μM tiazofurin
  Reduction in GTP levels: 21%
[10]; hNMNAT2-transfected HT29, 100 μM tiazofurin
  Reduction in GTP levels: 47%
[10]; wild-type Caco-2, 150 μM tiazofurin
  Reduction in GTP pools: 29%
[10]; wild-type Caco-2, 300 μM tiazofurin
  Reduction in GTP pools: 45%
[10]; wild-type HT29, 25 μM tiazofurin
  GTP reduction: did not result in GTP reduction
[10]; wild-type HT29, 100 μM tiazofurin
  GTP reduction: 22%
[11]; Caco2, tiazofurin 300 μM
  Fold higher concentration of TAD in hNMNAT2 overexpressing vs wild-type cell line: 2 fold
[11]; HT29, tiazofurin 150 μM
  Fold higher levels of TAD in hNMNAT2-overexpressing vs wild-type cell line: 2 fold
[12]; [17]
  Decrease in tumor volume: 50%
[12]; [18]
  Decrease in tumor volume: 70%
[13]; [17]
  Effect on tumor: complete disappearance of tumor
[13]; [18]
  Effect on tumor: complete disappearance of tumor
[14]
  Peak plasma concentration: 240 µM
[15]
  Antitumor activity: no significant antitumor activity
[16]
  Antitumor activity: significant antitumor activity
